The values that follow are results of earlier work, collected in patent publication US20080038252A1, “Histamine-Containing Composition for the Treatment of Allergic Diseases” (priority 2005, published 2008).

This data set concerns allergy animal model. The settings on record: same amount as in the complex, administered alone to the allergy animal model (Yoshii).

Consider `NCCc1c[nH]cn1` [histamine], for which the anti-inflammatory effect entry is “not produced”.
